Series [1] deals with C57 BL/6 mice, controlled cortical impact (CCI) model. Put plainly: Controlled cortical impact (CCI) model in mice, intracranial pressure (ICP). The settings on record: CCI mice, analogous treatment. It is filed as in vivo. An excerpt: The primary objective of this experiment was the characterization of the intracranial pressure (ICP) reduction by VAS3384 in the controlled cortical impact (CCI) model in mice. The secondary objective was characterization of the neuroprotective effect (reduction of the lesion volume) of VAS3384 in the controlled cortical impact model in mice.
• Test compound A • Denomination: VAS 3384 • Active agent: 4-Amino-4-desoxy-7,8-dihydrobiopterin-dihydrochloride, obtained from Schircks Laboratories, Bauma, Switzerland • Detailed composition: VAS 3384 dissolved in sodium phosphate buffer (PBS) pH 7.4 • Formulation method: 15 mg of the test compound (VAS 3384) are dissolved in 500 μl PBS, pH 7.4. The solution is neutralized with 72 μl 1 N NaOH and filled up with 428 μl water (check pH). • Final concentration of active agent: 15 mg/ml • Appearance: yellow, clear solution • Storage (solid test compound): −20° C. • Dose applied: 560 mg/kg or 37.3 ml/kg • Way of administration: intravenous injection/infusion • Negative control • Denomination: sodium phosphate buffer (PBS) • Active agent: none • Detailed composition: Na2HPO4, NaH2PO4, 100 mM pH 7.4 • Formulation method: ready for use • Final concentration of active agent: not applicable • Appearance: colourless, clear solution • Expiration date: 3 months after preparation • Volume applied: 37.3 ml/kg • Way of administration: intravenous injection/infusion Experimental Procedure
The animals (C57 BL/6 mice), under Dormicum/Methidomidin/Fentanyl-narcosis were fixed in a stereo tactical frame and the scalp was opened with a cut along the median. The skull bone
was laid open and disinfected with H2O2. A hole of approx. 1.2 mm diameter was then drilled into the skull (Bregma 0.4-0.4 mm). The ICP-probe was introduced through this hole. The V. jugularis was be laid open and a catheter introduced. This catheter was introduced in the neck subcutaneously and fixed on the cap of the cage with a protective spiral of metal. This setup permitted an infusion in awake animals. The skull was opened above of the right cortex and mechanically traumatized (CCI model). The skullcap was then closed with the removed bone.
Mice 1-9: 10 minutes after the trauma the animals got an intravenous bolus injection of 20 mg/kg VAS 3384 (=1.33 ml/kg) followed by an infusion of 1.5 mg/kg/min (=100 μl/kg/min) VAS 3384 over six hours to maintain the dose. After six hours, after termination of the infusion, and after 24 hours the ICP of the animals was measured. After 24 hours the animals were sacrificed, the brains dissected and the lesion volume determined by Nissl's method.
Mice 10-18: 10 minutes after the trauma the animals received an intravenous bolus injection of 1.33 ml/kg PBS followed by an infusion of 100 μl/kg/min PBS over six hours. After six hours, after the termination of the infusion, and after 24 hours the ICP of the animals was measured.
At the end of the observation period animals were sacrificed by cervical dislocation in deep halothane anaesthesia. The brains were carefully removed, frozen in powdered dry ice, and stored at −20° C. until further use. Ten μm coronal sections were prepared every 500 μm on a cryostat (CryoStar HM 560, Microm, Walldorf, Germany) and stained with cresyl violet. Sections were photographed with a digital camera system. The contusion area, the area of the non-traumatized tissue of the ipsilateral hemisphere, and the area of the contralateral hemisphere were determined on the digitized images with a standard image analysis software (Optimate 6.51, Media Cybernetics, Silver Spring, MD, USA) by an investigator blinded to the treatment of the animals. In order to correct for the swelling of contused tissue, the contusion area was calculated by subtracting the area of the non-traumatized tissue of the ipsilateral hemisphere from the area of the contralateral hemisphere. […]

Series [2] concerns extracellular brain glutamate level. Put plainly: Brain microdialysis, extracellular cerebral glutamate levels in TBI patients. The series is classed as in vivo, human. The method, then:
To monitor the metabolic condition of the patients, extracellular brain glutamate and lactate levels were measured. In more detail, the extracellular intracerebral glutamate and lactate levels measured here is the glutamate or lactate level in brain extracellular fluid (ECF). […] The measurements of the glutamate and lactate levels was carried out using established brain microdialysis (MD) methodology as described, for example, by Chamoun et al, example. Role of extracellular glutamate measured by cerebral microdialysis in severe traumatic brain injury. J Neurosurg. 2010 September; 113(3): 564-570.
The microdialysis (MD) equipment was obtained from M Dialysis AB, Stockholm, Sweden, see www.mdialysis.com. The following equipment was used. • Cerebral MD catheters: CMA 70 • CMA 70 bolt catheter • CMA 71 high cut-off cerebral catheter • Pumps: CMA106=fixed flow rate, CMA107=flexible flow rate • Perfusion solution: Cerebral: Perfusion fluid CNS • Analyzers: CMA 600, ISCUS, ISCUSflex Time Point of MD Catheter Insertion • Aim: Obtain stable baseline values before infusing study drug • Ideal: By 14 hours after TBI or 4 hours before study drug infusion to allow for tissue adaptation, usually lasting 1-4 hours • Compromise: As soon as possible, within 4 hours after beginning study drug infusion Site of Cerebral MD Catheter Insertion • Aim: Monitor metabolic changes close to structural damage visible on routine CT scan • Contusion: Close to the contusion • Mixed lesions: Predominantly injured hemisphere • With bolt system: Right or left frontal lobe • Without bolt system: Right or left frontal/temporal/parietal area • If possible cerebral MD catheter should be placed ipsilateral to the ICP probe • Special care should be taken to avoid inducing injury to pre- and postcentral cortex • The position of the MD probe and the position of the ICP probe in the eCRF should be indicated.
The cerebral glutamate and lactate levels were recorded every 1 h up to 5 days after the start of the infusion. Absolute values were be summarized per treatment group and for each time point by means of descriptive statistics. The 95% confidence intervals for the mean were calculated (normal approximation).
For the analysis of the metabolic state, it was considered that under normal (physiological) conditions glutamate is maintained at low levels (micromolar) in the extracellular space (<2 μmol/L) and in plasma (50-100 μmol/L) to avoid excessive glutamate receptor activation. Within the different intracellular compartments glutamate is present in higher amounts (5-15 millimolar). In brain microdialysis, glutamate levels exceeding 10 μmol/L are considered elevated, higher glutamate levels are associated with worse outcome. In addition to the absolute levels, dynamic changes are also important in interpreting underlying pathology. In brain microdialysis and blood, lactate levels exceeding 2.5 millimol/L are considered pathologically elevated, reflecting insufficient metabolic/energetic stability which is further aggravated by insufficient oxygen supply.

As to `C[C@H](O)[C@H](O)C1CNc2nc(N)nc(N)c2N1` (mixture of isomers) [Ronopterin, 4-Amino-(6R,S)-5,6,7,8-tetrahydro-L-biopterin], the “time ICP remained lowered after the treatment” value in series [1] is listed as “at least 18 h”. Further, the “extracellular cerebral glutamate level” value in series [2] (18 to 39 years, infusion >12 hours after TBI, majority of patients, essentially the same as placebo (FIG. 5E)) is less than 10 µmol/L; in series [2] (18 to 39 years, infusion ≤12 h after TBI, all patients (FIG. 5B)) it was less than 10 µmol/L; in series [2] (40 to 60 years, infusion >12 hours after TBI, majority of the patients (FIG. 6B)), less than 10 µmol/L; in series [2] (40 to 60 years, infusion ≤12 h after TBI, no placebo group, not all patients <10 μmol/L (FIG. 6A)), “partially lowered brain glutamate levels”; in series [2] (patients aged 18 to 39 years, all times to infusion, all patients, up to 108 hours (FIG. 4B)) it was less than 10 µmol/L; in series [2] (patients aged 40 to 60 years, all times to infusion, majority of patients (FIG. 4E)) it was less than 10 µmol/L. The “extracellular brain glutamate levels after infusion” value in series [2] (TBI patients, within 12 hours after start of the administration) is “less than 10 μmol/L”. In series [2] (inferred from Example 4), the “passage of the human blood brain barrier” value is listed as “passes the human blood brain barrier”.

Values taken from patent US12465609B2, “Methods of treating patients suffering from a disease condition or disorder that is associated with an increased glutamate level” (veriNOS operations GmbH, priority 2022, dated 2025).
